Test results: patent US20060019270A1, “Global DNA methylation assessment using bisulfite PCR” (Board of Regents The University of Texas System, priority 2004, published 2006)

Experiments:
[1] = system: leukemia (AML/MDS, CML/CMML) patients; test: Clinical response in the High Dose and Low Dose decitabine studies; type: in vivo, human
Procedure: FIG. 6 illustrates treatment schema of patient samples. Patients were treated as part of a Phase II study of Decitabine which was given initially a dose of 90 mg/m2 twice daily for 5 consecutive days. This dose was later decreased to 50 mg/m2 twice daily due to toxicity. In this “High” Dose Study a total dose of 500-900 mg/m2 of decitabine was given over a 5 day period. Peripheral blood specimens were collected on day 0 or 1 prior to treatment, days 2-4 during treatment, and on days 5 or 6 after the completion of treatment. In the second study, a Phase I strategy of “Low” Dose Decitabine was used. This study was designed to take advantage of Decitabine's demethylating properties. Escalating doses of Decitabine of 5, 10, 15 and 20 mg/m2 were given as ten daily doses over a two week period. The total dose delivered was only 50 to 200 mg/m2 over a 14 day period. Peripheral blood specimens were collected on day 0 or 1 prior to treatment, and during days 2-14 of treatment;
Patient samples were collected from patients treated as part of two clinical studies using 5-aza-2′deoxycytidine (decitabine) as a single agent. The first study treated patients with 50-90 mg/m2 of decitabine twice daily for 5 consecutive days (See FIG. 8). The second study was a phase I study which attempted to capitalize on the demethylating properties of decitabine by using a lower dose of decitabine, 5-20 mg/m^2 once daily, for a longer period of time, 10 days over a two week period (See FIG. 8). Peripheral blood samples were collected prior to, during and after treatment. Donation of blood samples for laboratory studies was voluntary and […] were collected from 41 patients participating in both studies (See Table 4). Due to competing protocols and the availability of patients at the time of the two respective studies the majority of the patients enrolled on DM−, the “High-Dose” study were CML patients and the majority of the patients enrolled on DM−, the “Low-Dose” study were AML or High Risk MDS patients.
Donation of peripheral blood for laboratory analysis was voluntary, and only some of the patients enrolled on the two studies participated. A total of 134 samples were collected for analysis (52 in the High Dose Study and 82 in the Low Dose Study). The majority of patients treated in the High Dose Study were CML patients, however, the majority of patients treated in the Low Dose Study were AML or High risk MDS patients.

[2] = system: LINE-1 methylation in SW48 cells; test: COBRA (HinfI) of LINE-1 PCR, SW48 cells treated with DAC; type: cell-based, human; details: 5 μM DAC for three days, decrease from 59%
Procedure: (§1) Hct116, RKO and SW48, colon cancer cell lines (American Type Culture Collection, Manassas, Va.), were cultured using standard methods. Cells were treated with 5 μM 5-aza-2′deoxycytidine (DAC) for three days prior to being harvested. DNA from cell lines and peripheral blood leukocytes was extracted using phenol-chloroform extraction methods well known to one with skill on the art.
(§2) Bisulfite modification of genomic DNA is known in the art (see Clark et. al, 1994). In brief, 1.5 μg prepared 10 mM hydroquinone (Sigma) and 520 μl of 3M Sodium Bisulfite (Sigma) at pH=5.0 were added and mixed. The samples were overlayed with mineral oil to prevent evaporation and incubated at 50° C. for 16 hours. The bisulfite treated DNA was isolated using Wizard DNA Clean-Up System (Promega). The DNA was eluted by 50 μl of warm water and 5.5 μl of 3M NaOH were added for 5 minutes. The DNA was ethanol precipitated with glycogen as a carrier and resuspended in 20 μl water. Bisulfite treated DNA was stored at −20° C. until ready for use. […]
(§3) In order to test whether Alu element […] LINE-1 methylation could approximate global methylation, COBRA, restriction digestion of the repetitive element PCR product, was used to quantitate DNA methylation in cell lines treated with 5-aza-2′deoxycytidine (DAC) (FIG. 3). […] Thus both assays reliably detected inhibition of methylation induced by DAC. […]

[3] = system: Alu element methylation in Hct116 cells; test: COBRA (MboI) of Alu repetitive element PCR, Hct116 cells treated with DAC; type: cell-based, human; details: 5 μM DAC for three days, 29% prior to treatment
Procedure: as §1
(§4) Bisulfite modification of genomic DNA is known in the art (see Clark et. al, 1994). In brief, 1.5 μg prepared 10 mM hydroquinone (Sigma) and 520 μl of 3M Sodium Bisulfite (Sigma) at pH=5.0 were added and mixed. The samples were overlayed with mineral oil to prevent evaporation and incubated at 50° C. for 16 hours. […] Bisulfite treated DNA was stored at −20° C. until ready for use.
(§5) Methylation analysis of Alu repetitive elements was performed initially by the COBRA assay. […] The digested PCR product was then separated by polyacrylamide gel electrophoresis or the PCR products were quantitated using a capillary electrophoresis system, an Agilent 2100 Bioanalyzer (Agilent Technologies, Palo Alto, Calif.).
(§6) In order to test whether Alu element […] LINE-1 methylation could approximate global methylation, COBRA, restriction digestion of the repetitive element PCR product, was used to quantitate DNA methylation in cell lines treated with 5-aza-2′deoxycytidine (DAC) (FIG. 3). […]

[4] = system: LINE-1 methylation in RKO cells; test: COBRA (HinfI) of LINE-1 PCR, RKO cells treated with DAC; type: cell-based, human; details: 5 μM DAC for three days, decrease from 67%
Procedure: as §1, §2, §3

[5] = system: Alu element methylation in RKO cells; test: COBRA (MboI) of Alu repetitive element PCR, RKO cells treated with DAC; type: cell-based, human; details: 5 μM DAC for three days, decrease from 26%
Procedure: as §1, §4, §5, §6

[6] = Total of both studies, 41 patients

Nc1ncn([C@H]2C[C@H](O)[C@@H](CO)O2)c(=O)n1 [decitabine, 5-aza-2′-deoxycytidine]
Response Rate ([1]; High Dose Study, 18 patients): 39% | Treatment Response CR/PR (patients) ([1]; High Dose Study, 18 patients): 7 | Treatment Response No Response (patients) ([1]; High Dose Study, 18 patients): 11 | Response Rate ([1]; Low Dose Study, 23 patients): 35% | Treatment Response CR/PR (patients) ([1]; Low Dose Study, 23 patients): 7 | Treatment Response No Response (patients) ([1]; Low Dose Study, 23 patients): 13 | Response Rate [1, 6]: 34% | Treatment Response CR/PR (patients) [1, 6]: 14 | Treatment Response No Response (patients) [1, 6]: 24 | LINE-1 methylation after treatment with DAC [2]: 41% | Alu element methylation after treatment with DAC [3]: 16% | LINE-1 methylation after treatment with DAC [4]: 29% | Alu element methylation after treatment with DAC [5]: 21%
